Reference: US9073821B2, “Hydroxamic acid derivative” (priority 2010, dated 2015)
pIC50: −log10 of the molar value.

target: Pseudomonas aeruginosa LpxC enzyme (Pseudomonas aeruginosa (strain ATCC 15692 / DSM 22644 / CIP 104116 / JCM 14847 / LMG 12228 / 1C / PRS 101 / PAO1), UniProt P47205); test: biochemical; type: biochemical; conditions: inhibitory activity on Pseudomonas aeruginosa LpxC enzyme, class symbols A/B/C; read-out: Enzyme inhibitory activity

`CNC(=O)C(C(=O)NO)N(C)C(=O)c1ccc(-c2ccc(OCC(F)CN3CCOCC3)cc2)cc1` (centres unmarked) [Compound 283, 2-[({4′-[2-fluoro-3-(morpholin-4-yl)propoxy]biphenyl-4-yl}carbonyl)(methyl)amino]-N-hydroxy-N′-methylpropanediamide] and `CNC(=O)C(C(=O)NO)N(C)C(=O)c1ccc(-c2ccc(SCCCN3CCOCC3)cc2)cc1` (centres unmarked) [Compound 286, N-hydroxy-N′-methyl-2-{methyl[(4′-{[3-(morpholin-4-yl)propyl]sulfanyl}biphenyl-4-yl)carbonyl]amino}propanediamide] cannot be ordered by pIC50: over 8.00 for the first, over 8.00 for the second.

Compared with `CNC(=O)C(C(=O)NO)N(C)C(=O)c1ccc(-c2ccc(N)cc2)cc1` (centres unmarked) [Compound 284, 2-{[(4′-aminobiphenyl-4-yl)carbonyl](methyl)amino}-N-hydroxy-N′-methylpropanediamide], `CCOCc1ccc(-c2ccc(C(=O)N(C)C(C(=O)NC)C(=O)NO)cc2)cc1` (centres unmarked) [Compound 285, 2-[{[4′-(ethoxymethyl)biphenyl-4-yl]carbonyl}(methyl)amino]-N-hydroxy-N′-methylpropanediamide] is higher in pIC50: 7.00 to 8.00 for the first, over 8.00 for the second.

`CNC(=O)C(C(=O)NO)N(C)C(=O)c1ccc(-c2ccc(N3CCC(CN4CCOCC4)C3)cc2)cc1` (centres unmarked) [Compound 287, N-hydroxy-N′-methyl-2-[methyl({4′-[3-(morpholin-4-ylmethyl)pyrrolidin-1-yl]biphenyl-4-yl}carbonyl)amino]propanediamide] and `CNC(=O)C(C(=O)NO)N(C)C(=O)c1ccc(-c2ccc(OCCCN3CCSCC3)cc2)cc1` (centres unmarked) [Compound 288, N-hydroxy-N′-methyl-2-[methyl({4′-[3-(thiomorpholin-4-yl)propoxy]biphenyl-4-yl}carbonyl)amino]propanediamide] cannot be ordered by pIC50: over 8.00 for the first, over 8.00 for the second.

`CNC(=O)C(C(=O)NO)N(C)C(=O)c1ccc(-c2ccc(OCCCN3CCS(=O)(=O)CC3)cc2)cc1` (centres unmarked) [Compound 289, 2-[({4′-[3-(1,1-dioxidothiomorpholin-4-yl)propoxy]biphenyl-4-yl}carbonyl)(methyl)amino]-N-hydroxy-N′-methylpropanediamide] and `CNC(=O)C(C(=O)NO)N(C)C(=O)c1ccc(-c2ccc(SCCOC)cc2)cc1` (centres unmarked) [Compound 291, N-hydroxy-2-[({4′-[(2-methoxyethyl)sulfanyl]biphenyl-4-yl}carbonyl)(methyl)amino]-N′-methylpropanediamide] cannot be ordered by pIC50: over 8.00 for the first, over 8.00 for the second.

Compared with `CNC(=O)C(C(=O)NO)N(C)C(=O)c1ccc(-c2ccc3c(c2)COC3)cc1` (centres unmarked) [Compound 290, 2-[{[4-(1,3-dihydro-2-benzofuran-5-yl)phenyl]carbonyl}(methyl)amino]-N-hydroxy-N′-methylpropanediamide], `CNC(=O)C(C(=O)NO)N(C)C(=O)c1ccc(-c2ccsc2)cc1` (centres unmarked) [Compound 292, N-hydroxy-N′-methyl-2-(methyl {[4-(thiophen-3-yl)phenyl]carbonyl}amino)propanediamide] is lower in pIC50: over 8.00 for the first, 7.00 to 8.00 for the second.

`CNC(=O)C(C(=O)NO)N(C)C(=O)c1ccc(-c2cccc(C)n2)cc1` (centres unmarked) [Compound 295, N-hydroxy-N′-methyl-2-(methyl {[4-(6-methylpyridin-2-yl)phenyl]carbonyl}amino)propanediamide] and `CNC(=O)C(C(=O)NO)N(C)C(=O)c1ccc(-c2cccc(OC)n2)cc1` (centres unmarked) [Compound 296, N-hydroxy-2-[{[4-(6-methoxypyridin-2-yl)phenyl]carbonyl}(methyl)amino]-N′-methylpropanediamide] cannot be ordered by pIC50: under 7.00 for the first, under 7.00 for the second.

`CNC(=O)C(C(=O)NO)N(C)C(=O)c1ccc(-c2ccc(C(F)(F)F)cn2)cc1` (centres unmarked) [Compound 297, N-hydroxy-N′-methyl-2-[methyl({4-[5-(trifluoromethyl)pyridin-2-yl]phenyl}carbonyl)amino]propanediamide] and `CNC(=O)C(C(=O)NO)N(C)C(=O)c1ccc(-c2cnccn2)cc1` (centres unmarked) [Compound 309, N-hydroxy-N′-methyl-2-(methyl {[4-(pyrazin-2-yl)phenyl]carbonyl}amino)propanediamide] cannot be ordered by pIC50: under 7.00 for the first, under 7.00 for the second.

`CNC(=O)C(C(=O)NO)N(C)C(=O)c1cnc(-c2ccccc2)cn1` (centres unmarked) [Compound 299, N-hydroxy-N′-methyl-2-{methyl[(5-phenylpyrazin-2-yl)carbonyl]amino}propanediamide] and `CNC(=O)C(C(=O)NO)N(C)C(=O)c1ccc(-c2ncccn2)cc1` (centres unmarked) [Compound 311, N-hydroxy-N′-methyl-2-(methyl {[4-(pyrimidin-2-yl)phenyl]carbonyl}amino)propanediamide] cannot be ordered by pIC50: under 7.00 for the first, under 7.00 for the second.

Compared with `CNC(=O)C(C(=O)NO)N(C)C(=O)c1ccc(C#Cc2ccc(CNCCF)cc2)cc1` (centres unmarked) [Compound 300, 2-[({4-[(4-{[(2-fluoroethyl)amino]methyl}phenyl)ethynyl]phenyl}carbonyl)(methyl)amino]-N-hydroxy-N′-methylpropanediamide], `CNC(=O)C(C(=O)NO)N(C)C(=O)c1ccc(C#Cc2ccc(CNCCC(C)(C)O)cc2)cc1` (centres unmarked) [Compound 323, N-hydroxy-2-[({4-[(4-{[(3-hydroxy-3-methylbutyl)amino]methyl}phenyl)ethynyl]phenyl}carbonyl)(methyl)amino]-N′-methylpropanediamide] is lower in pIC50: over 8.00 for the first, 7.00 to 8.00 for the second.

`CNC(=O)C(C(=O)NO)N(C)C(=O)c1ccc(C#Cc2ccc(CN3CCN(C)CC3)cc2)cc1` (centres unmarked) [Compound 304, N-hydroxy-N′-methyl-2-(methyl {[4-({4-[(4-methylpiperazin-1-yl)methyl]phenyl}ethynyl)phenyl]carbonyl}amino)propanediamide] and `CNC(=O)C(C(=O)NO)N(C)C(=O)c1ccc(C#Cc2ccc(CN3CC(C)(O)C3)cc2)cc1` (centres unmarked) [Compound 321, N-hydroxy-2-[{[4-({4-[(3-hydroxy-3-methylazetidin-1-yl)methyl]phenyl}ethynyl)phenyl]carbonyl}(methyl)amino]-N′-methylpropanediamide] cannot be ordered by pIC50: over 8.00 for the first, over 8.00 for the second.

Compared with `CNC(=O)C(C(=O)NO)N(C)C(=O)c1ccc(-n2cccc2)cc1` (centres unmarked) [Compound 307, N-hydroxy-N′-methyl-2-(methyl {[4-(1H-pyrrol-1-yl)phenyl]carbonyl}amino)propanediamide], `CNC(=O)C(C(=O)NO)N(C)C(=O)c1ccc(-c2cccs2)cc1` (centres unmarked) [Compound 308, N-hydroxy-N′-methyl-2-(methyl {[4-(thiophen-2-yl)phenyl]carbonyl}amino)propanediamide] is higher in pIC50: under 7.00 for the first, 7.00 to 8.00 for the second.

Compared with `CNC(=O)C(C(=O)NO)N(C)C(=O)c1ccc(-c2cnco2)cc1` (centres unmarked) [Compound 310, N-hydroxy-N′-methyl-2-(methyl {[4-(1,3-oxazol-5-yl)phenyl]carbonyl}amino)propanediamide], `CNC(=O)C(C(=O)NO)N(C)C(=O)c1ccc(-c2cc3ccccc3o2)cc1` (centres unmarked) [Compound 312, 2-[{[4-(1-benzofuran-2-yl)phenyl]carbonyl}(methyl)amino]-N-hydroxy-N′-methylpropanediamide] is higher in pIC50: under 7.00 for the first, over 8.00 for the second. The second is the more potent here.

`CNC(=O)C(C(=O)NO)N(C)C(=O)c1ccc(C#Cc2ccc(CN(CCO)CCO)cc2)cc1` (centres unmarked) [Compound 315, 2-[({4-[(4-{[bis(2-hydroxyethyl)amino]methyl}phenyl)ethynyl]phenyl}carbonyl)(methyl)amino]-N-hydroxy-N′-methylpropanediamide] and `CNC(=O)C(C(=O)NO)N(C)C(=O)c1ccc(C#Cc2ccc(OCC(O)CO)cc2)cc1` (centres unmarked) [Compound 320, 2-{[(4-{[4-(2,3-dihydroxypropoxy)phenyl]ethynyl}phenyl)carbonyl](methyl)amino}-N-hydroxy-N′-methylpropanediamide] cannot be ordered by pIC50: over 8.00 for the first, over 8.00 for the second.

`CNC(=O)C(C(=O)NO)N(C)C(=O)c1ccc(C#Cc2ccc(CNC3CCC3)cc2)cc1` (centres unmarked) [Compound 316, 2-[{[4-({4-[(cyclobutylamino)methyl]phenyl}ethynyl)phenyl]carbonyl}(methyl)amino]-N-hydroxy-N′-methylpropanediamide] and `CNC(=O)C(C(=O)NO)N(C)C(=O)c1ccc(C#Cc2ccc(CNC3CCCCC3)cc2)cc1` (centres unmarked) [Compound 318, 2-[{[4-({4-[(cyclohexylamino)methyl]phenyl}ethynyl)phenyl]carbonyl}(methyl)amino]-N-hydroxy-N′-methylpropanediamide] fall in the same range of pIC50: 7.00 to 8.00 for the first, 7.00 to 8.00 for the second.

`CNC(=O)C(C(=O)NO)N(C)C(=O)c1ccc(OCc2ccc(OC)cc2)cc1` (centres unmarked) [Compound 319, N-hydroxy-2-[({4-[(4-methoxybenzyl)oxy]phenyl}carbonyl)(methyl)amino]-N′-methylpropanediamide] and `CNC(=O)C(C(=O)NO)N(C)C(=O)c1ccc(C#Cc2ccc(CNC(C)(C)C)cc2)cc1` (centres unmarked) [Compound 328] fall in the same range of pIC50: 7.00 to 8.00 for the first, 7.00 to 8.00 for the second.

Compared with `CNC(=O)C(C(=O)NO)N(C)C(=O)c1ccc(C#Cc2ccc(CN3CC4(COC4)C3)cc2)cc1` (centres unmarked) [Compound 322, N-hydroxy-N′-methyl-2-{methyl[(4-{[4-(2-oxa-6-azaspiro[3.3]hept-6-ylmethyl)phenyl]ethynyl}phenyl)carbonyl]amino}propanediamide], `CNC(=O)C(C(=O)NO)N(C)C(=O)c1ccc(C#Cc2ccc(CN(C)C3CCCCC3)cc2)cc1` (centres unmarked) [Compound 327, 2-[({4-[(4-{[cyclohexyl(methyl)amino]methyl}phenyl)ethynyl]phenyl}carbonyl)(methyl)amino]-N-hydroxy-N′-methylpropanediamide] is lower in pIC50: over 8.00 for the first, 7.00 to 8.00 for the second.

`CNC(=O)C(C)(C(=O)NO)N(C)C(=O)c1ccc(-c2ccccc2)cc1` (centres unmarked) [Compound 324, 2-[(Biphenyl-4-ylcarbonyl)(methyl)amino]-N-hydroxy-N′,2-dimethylpropanediamide] and `CNC(=O)C(C(=O)NO)N(C)C(=O)c1ccc(C#Cc2ccc(CNCc3ccccc3)cc2)cc1` (centres unmarked) [Compound 330, 2-[{[4-({4-[(benzylamino)methyl]phenyl}ethynyl)phenyl]carbonyl}(methyl)amino]-N-hydroxy-N′-methylpropanediamide] cannot be ordered by pIC50: over 8.00 for the first, over 8.00 for the second.

With `CNC(=O)C(C(=O)NO)N(C)C(=O)c1ccc(C#Cc2ccc(CNCC(C)(C)C)cc2)cc1` (centres unmarked) [Compound 329, 2-[({4-[(4-{[(2,2-dimethylpropyl)amino]methyl}phenyl)ethynyl]phenyl}carbonyl)(methyl)amino]-N-hydroxy-N′-methylpropanediamide] the pIC50 was over 8.00.
